Test results as given in US11541049B2, “Tetrahydroisoquinoline derivatives, preparation process and use thereof” (SICHUAN KELUN-BIOTECH BIOPHARMACEUTICAL CO., LTD., priority 2018, dated 2023).
In brackets after ≈: the same amount, converted by molar mass.

How the values were obtained:
[1] = biological target: human coagulation factor VIIa (Homo sapiens (Human), UniProt P08709); assay: Determination of inhibition of factor VIIa; type: biochemical
Description: Enzyme: human coagulation factor VIIa; manufacturer: Haematologic Technologies;
Substrate: Boc-VPR-AMC; R&D System;
Tissue factor: tissue factor F3; manufacturer: Sino Biological;
The test compounds were dissolved in assay buffer (50 mM Hepes, 150 mM NaCl, 5 mM CaCl2, pH 7.4) at a final concentration of 10 μM and 1 μM. Coagulation factor VIIa and tissue factor were mixed at an equimolar concentration. After incubation at 37° C. for 15 minutes, the test compound was further added. Incubation was conducted at room temperature for 10 minutes. Then the substrate (Boc-VPR-AMC) was added to initiate the reaction. For reading fluorescence signal value, enzyme kinetic mode was used. The wavelength of excitation light was 380 nm, and the wavelength of emission light was 460 nm. The IC50 was calculated in a similar manner to experimental Example 1.

[2] = biological target: human coagulation factor Xa (Homo sapiens (Human), UniProt P00742); assay: Determination of inhibition of factor Xa; type: biochemical
Sequence of human coagulation factor Xa (P00742 whole entry, looked up): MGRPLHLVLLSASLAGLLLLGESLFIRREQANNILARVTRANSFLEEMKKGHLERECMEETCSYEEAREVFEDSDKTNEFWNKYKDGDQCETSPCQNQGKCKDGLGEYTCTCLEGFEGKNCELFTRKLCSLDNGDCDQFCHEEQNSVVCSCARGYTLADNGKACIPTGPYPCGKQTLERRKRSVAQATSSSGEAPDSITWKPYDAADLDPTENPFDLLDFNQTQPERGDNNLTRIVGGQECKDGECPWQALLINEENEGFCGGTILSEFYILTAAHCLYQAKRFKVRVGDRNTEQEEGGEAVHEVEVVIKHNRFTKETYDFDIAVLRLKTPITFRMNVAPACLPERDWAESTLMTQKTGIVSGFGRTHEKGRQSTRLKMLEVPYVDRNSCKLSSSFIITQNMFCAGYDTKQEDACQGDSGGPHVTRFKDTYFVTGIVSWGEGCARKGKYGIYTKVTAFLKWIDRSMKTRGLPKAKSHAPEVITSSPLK
Sequence of human coagulation factor Xa (P00742 whole entry, looked up): as above
Description: Enzyme: human coagulation factor Xa; manufacturer: R&D System;
Substrate: Mca-RPKPVE-Nval-WRK(Dnp)-NH2; manufacturer: R&D;
The test compounds were dissolved in assay buffer (50 mM Tris, 150 mM NaCl, 10 mM CaCl2, 0.05% Brij35, pH 7.5) at a final concentration of 10 μM and 1 μM. Coagulation factor Xa and test compound were added to the well plate, and incubation was conducted at room temperature for 10 minutes after mixed thoroughly. The substrate (Mca-RPKPVE-Nval-WRK(Dnp)-NH2) was added to initiate the reaction. For reading fluorescence signal value, enzyme kinetic mode was used. The wavelength of excitation light was 320 nm, and the wavelength of emission light was 400 nm. The IC50 was calculated in a manner similar to experimental Example 1.

[3] = Solubility test in pH 7.4 buffer; type: physicochemical; details: buffer (pH 7.4), aqueous buffer, thermodynamic from solid, 25° C.
Description: The test compound was dissolved in a buffer (pH 7.4) at room temperature until the solution reached supersaturation. The solution was shaken at 25° C. by a constant temperature mixer for 4 hours, filtered through a 0.45 μm aqueous membrane filter, and the concentration was measured by UPLC. 1 mg of the test compound was accurately weighed, and dissolved in 10 mL volumetric flask as the reference substance. The reference substance was measured using the same process. The solubility of the test compound was calculated according to external standard process, and the results are shown in table 4.

[4] = Pharmacokinetics study in male SD rats, intravenous injection; type: in vivo
Description: (§1) Pharmacokinetics characteristics were examined by administering compound of the present disclosure and the reference compound (BMS-962212) to male SD rats through intravenous injection (IV). Blood was collected at various time points after administration. The blood was anticoagulated with EDTA-K2. Plasma samples were obtained by centrifugation within 30 min after blood collection, and retained at −80° C. The plasma samples were processed to precipitate the proteins and then analyzed by LC-MS/MS.
(§2) The pharmacokinetic parameters were calculated using WinNonlin 6.3 software by employing a non-compartmental model.

[5] = Pharmacokinetics study in male rabbits, intravenous injection; type: in vivo
Description: as §1, with “properties” for “characteristics”, “rabbits” for “SD rats”, “centrifugation,” for “centrifugation within 30 min after blood collection,”
as §2

[6] = Pharmacokinetics study in Beagle dogs, intravenous injection; type: in vivo, Beagle dog
Description: as §1, with “properties” for “characteristics”, “Beagle dog” for “male SD rats”, “centrifugation,” for “centrifugation within 30 min after blood collection,”
as §2

[7] = Repeated dose toxicity study in SD rats, intravenous infusion, daily for 14 days; type: in vivo; details: rat, in vivo, daily for 14 days, SD rats, read-out: No-observed-adverse-effect level (NOAEL)
Description: The administration was repeated daily for 14 days, while clinical observation, body weight and food intake were recorded. […] Observation by gross anatomy and examination of histopathology were also conducted.

[8] = Blood exposure after intravenous administration in various animal species (summary); type: in vivo; details: rat, rabbit, dog
Description: as §1
as §1, with “properties” for “characteristics”, “rabbits” for “SD rats”, “centrifugation,” for “centrifugation within 30 min after blood collection,”
as §1, with “properties” for “characteristics”, “Beagle dog” for “male SD rats”, “Plasma samples were obtained by centrifugation within 30 min after blood collection, and retained at −80° C.” left out

[9] = male, SD, rat, plasma, rats, 1 mg/kg

Sequence of human coagulation factor VIIa (P08709 whole entry, looked up): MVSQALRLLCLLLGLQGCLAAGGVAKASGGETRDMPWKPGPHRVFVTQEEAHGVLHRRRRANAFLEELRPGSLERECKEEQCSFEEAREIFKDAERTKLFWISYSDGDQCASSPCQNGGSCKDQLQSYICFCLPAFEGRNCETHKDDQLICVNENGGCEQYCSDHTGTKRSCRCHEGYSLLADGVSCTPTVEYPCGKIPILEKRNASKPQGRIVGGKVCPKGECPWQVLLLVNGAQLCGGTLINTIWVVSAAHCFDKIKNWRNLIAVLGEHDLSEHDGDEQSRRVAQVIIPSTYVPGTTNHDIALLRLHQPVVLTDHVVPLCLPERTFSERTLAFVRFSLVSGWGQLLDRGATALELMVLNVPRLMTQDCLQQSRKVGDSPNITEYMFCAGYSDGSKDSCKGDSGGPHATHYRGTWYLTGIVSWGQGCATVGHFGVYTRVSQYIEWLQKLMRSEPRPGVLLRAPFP
Sequence of human coagulation factor VIIa (P08709 whole entry, looked up): as above
Sequence of human coagulation factor VIIa (P13726 whole entry partner, looked up): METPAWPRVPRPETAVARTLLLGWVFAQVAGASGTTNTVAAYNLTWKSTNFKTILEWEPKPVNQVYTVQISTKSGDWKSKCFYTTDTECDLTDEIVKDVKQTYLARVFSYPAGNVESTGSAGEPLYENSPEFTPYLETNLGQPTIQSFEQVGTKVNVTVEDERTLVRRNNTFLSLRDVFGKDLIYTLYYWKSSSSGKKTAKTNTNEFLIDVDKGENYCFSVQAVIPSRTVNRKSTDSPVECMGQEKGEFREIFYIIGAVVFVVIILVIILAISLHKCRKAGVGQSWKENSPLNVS

## N[C@@H](CCCCNC(=O)CN1CC=C(c2cccc3c2CCN(C(=O)[C@H]2CC(c4cccc(Cl)c4F)=NO2)[C@@H]3C(=O)Nc2ccc(C(=O)O)cc2)CC1)C(=O)O [Example 5, 4-((S)-5-(1-(2-(((S)-5-amino-5-carboxypentyl)amino)-2-oxoethyl)-1,2,3,6-tetrahydropyridin-4-yl)-2-((R)-3-(3-chloro-2-fluorophenyl)-4,5-dihydroisoxazole-5-carbonyl)-1,2,3,4-tetrahydroisoquinoline-1-carboxamido)benzoic acid]
[1]
  inhibitory effect on coagulation factor VIIa (in words): no significant inhibitory effect
[1]; tested at final concentration of 10 μM and 1 μM, with tissue factor
  IC50: > 10 µM
[2]
  inhibitory effect on coagulation factor Xa (in words): no significant inhibitory effect
[2]; tested at final concentration of 10 μM and 1 μM
  IC50: ~10 µM
[3]
  solubility at 4 h: 10.8 mg/mL (≈ 13.7 mM)
[4]; [9]
  AUC(0-inf): 2890 ± 473 ng·h/mL
  AUC(0-t): 2890 ± 473 ng·h/mL
  Cmax: 2990 ± 629 ng/mL
  clearance: 5.88 ± 1.07 mL/min/kg
  half-life: 46.8 ± 3.6 min
[4]; rat plasma, 1 mg/kg vs 5 mg/kg reference, dosage normalized
  AUClast relative to that of the reference compound: 3.53 times
[4]; rat, 1 mg/kg vs 5 mg/kg reference
  T1/2 relative to that of the reference compound: 4.11 times
[4]; rat, 1 mg/kg vs 5 mg/kg reference, dosage normalized
  Cmax relative to that of the reference compound: 1.35 times
[5]; 1 mg/kg each
  AUClast relative to that of the reference compound: 12.04 times
  Cmax relative to that of the reference compound: 4.74 times
  T1/2 relative to that of the reference compound: 2.65 times
[5]; male, rabbit, plasma, 1 mg/kg
  AUC(0-inf): 5740 ± 2270 ng·h/mL
  AUC(0-t): 5730 ± 2270 ng·h/mL
  Cmax: 6950 ± 1900 ng/mL
  Vd: 0.3 ± 0.09 L/kg
  clearance: 3.18 ± 1.06 mL/min/kg
  half-life: 68.4 ± 15.6 min
[5]; same dosage 1 mg/kg
  apparent volume of distribution as share of that of the reference compound: 23%
[6]; 0.5 mg/kg each
  AUClast relative to that of the reference compound: 20.38 times
  Cmax relative to that of the reference compound: 2.67 times
  T1/2 relative to that of the reference compound: 7.25 times
[6]; dog, plasma, 0.5 mg/kg
  AUC(0-inf): 18100 ± 683 ng·h/mL
  AUC(0-t): 17200 ± 370 ng·h/mL
  Cmax: 3950 ± 808 ng/mL
  Vd: 0.24 ± 0.02 L/kg
  clearance: 0.46 ± 0.02 mL/min/kg
  half-life: 361 ± 48 min
[6]; same dosage 0.5 mg/kg
  apparent volume of distribution as share of that of the reference compound: 34%
[7]
  NOAEL at 14 days: 60 mg/kg
[8]
  exposure in blood relative to that of BMS-962212: 3-25 times
